# Measured values reported in patent publication US20250313575A1, “MACROCYCLES AS LRRK2 INHIBITORS, PHARMACEUTICAL COMPOSITIONS, AND USES THEREOF” (Merck Sharp & Dohme LLC, priority 2022, published 2025).
# Biological target: GST-tagged truncated human mutant G2019S LRRK2 (Homo sapiens (Human), UniProt Q5S007, G2019S)
# Test: LRRK2 G2019S Km ATP LanthaScreen assay
# Assay type: biochemical
# Conditions: G2019S LRRK2, 134 μM ATP (Km ATP), LRRKtide substrate
# Procedure, shortened: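 TR-FRET assay with GST-tagged truncated human G2019S LRRK2 (1.25 nM), preincubated with compound 15 min, then reacted with fluorescein-LRRKtide and 134 μM ATP (Km) in Tris pH 8.5 buffer, 90 min, ambient temperature. Tb-anti-phospho-LRRKtide detection, 520/495 nm ratio; IC50 by 4-parameter logistic fit, top concentration 9.99 μM in DMSO, 10 points.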
# Chain of GST-tagged truncated human mutant G2019S LRRK2 (Q5S007 970-2527 G2019S): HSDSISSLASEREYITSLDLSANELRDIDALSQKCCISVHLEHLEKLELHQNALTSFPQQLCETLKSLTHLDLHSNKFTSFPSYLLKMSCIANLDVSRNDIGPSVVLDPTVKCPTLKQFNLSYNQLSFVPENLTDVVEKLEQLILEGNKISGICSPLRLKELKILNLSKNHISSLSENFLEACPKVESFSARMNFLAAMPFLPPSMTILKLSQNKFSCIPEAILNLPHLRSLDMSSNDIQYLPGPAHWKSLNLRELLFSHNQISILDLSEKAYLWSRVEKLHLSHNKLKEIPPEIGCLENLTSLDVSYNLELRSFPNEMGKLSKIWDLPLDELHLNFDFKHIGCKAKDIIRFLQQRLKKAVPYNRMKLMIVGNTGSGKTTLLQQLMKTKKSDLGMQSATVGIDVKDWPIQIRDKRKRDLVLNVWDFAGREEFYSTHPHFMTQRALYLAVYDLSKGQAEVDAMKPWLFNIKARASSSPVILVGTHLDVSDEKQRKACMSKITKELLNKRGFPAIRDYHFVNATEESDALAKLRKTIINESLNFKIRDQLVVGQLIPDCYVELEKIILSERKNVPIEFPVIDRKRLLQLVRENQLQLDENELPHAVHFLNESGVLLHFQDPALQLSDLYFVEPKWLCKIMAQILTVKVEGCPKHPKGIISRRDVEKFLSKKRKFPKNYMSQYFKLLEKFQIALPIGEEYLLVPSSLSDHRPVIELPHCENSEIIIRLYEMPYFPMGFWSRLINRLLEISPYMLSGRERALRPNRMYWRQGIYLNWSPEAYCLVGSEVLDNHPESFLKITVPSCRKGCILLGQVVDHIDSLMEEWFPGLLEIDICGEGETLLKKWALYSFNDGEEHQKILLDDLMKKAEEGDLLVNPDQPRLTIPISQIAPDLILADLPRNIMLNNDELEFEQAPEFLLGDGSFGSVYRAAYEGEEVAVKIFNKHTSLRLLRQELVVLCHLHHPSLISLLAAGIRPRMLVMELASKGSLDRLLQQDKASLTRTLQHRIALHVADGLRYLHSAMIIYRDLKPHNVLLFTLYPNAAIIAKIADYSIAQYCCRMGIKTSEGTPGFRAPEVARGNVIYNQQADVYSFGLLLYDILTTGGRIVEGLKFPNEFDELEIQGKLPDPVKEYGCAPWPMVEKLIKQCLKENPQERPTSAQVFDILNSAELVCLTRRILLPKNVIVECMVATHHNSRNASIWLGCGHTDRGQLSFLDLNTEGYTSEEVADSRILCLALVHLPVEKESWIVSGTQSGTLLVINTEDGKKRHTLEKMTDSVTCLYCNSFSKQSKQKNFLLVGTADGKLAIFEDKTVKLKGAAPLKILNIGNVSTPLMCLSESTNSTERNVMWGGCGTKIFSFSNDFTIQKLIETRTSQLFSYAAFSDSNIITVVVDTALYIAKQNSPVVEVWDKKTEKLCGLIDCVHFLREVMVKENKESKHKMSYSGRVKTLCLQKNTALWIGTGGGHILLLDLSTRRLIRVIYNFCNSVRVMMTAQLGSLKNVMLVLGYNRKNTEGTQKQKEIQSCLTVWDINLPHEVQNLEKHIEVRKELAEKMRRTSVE
row,Structure (SMILES),LRRK2 pIC50
1,"Cc1nn(C2CC2(F)F)c2c1OCC1COCC1Nc1nc(ncc1C(F)(F)F)N2 [Ex-2.58, (10aS,13aS)-3-((R)-2,2-difluorocyclopropyl)-1-methyl-8-(trifluoromethyl)-3,4,10a,11,13a,14-hexahydro-10H,13H-5,9-(azeno)furo[3,4-k]pyrazolo[4,3-b][1]oxa[4,6,10]triazacyclotridecine (10aS,13aS)-3-((S)-2,2-difluorocyclopropyl)-1-methyl-8-(trifluoromethyl)-3,4,10a,11,13a,14-hexahydro-10H,13H-5,9-(azeno)furo[3,4-k]pyrazolo[4,3-b][1]oxa[4,6,10]triazacyclotridecine]",8.78
2,"Cc1nn(C2CC2(F)F)c2c1OCC1COCC1Nc1nc(ncc1C(F)(F)F)N2 [Ex-2.59, (10aS,13aS)-3-((R)-2,2-difluorocyclopropyl)-1-methyl-8-(trifluoromethyl)-3,4,10a,11,13a,14-hexahydro-10H,13H-5,9-(azeno)furo[3,4-k]pyrazolo[4,3-b][1]oxa[4,6,10]triazacyclotridecine (10aS,13aS)-3-((S)-2,2-difluorocyclopropyl)-1-methyl-8-(trifluoromethyl)-3,4,10a,11,13a, 14-hexahydro-10H,13H-5,9-(azeno)furo[3,4-k]pyrazolo[4,3-b|[1]oxa|4,6,10]triazacyclotridecine]",9.71
3,"Cc1nn(C2CC2)c2c1OC[C@@H]1CC[C@H]1Nc1nc(ncc1Cl)N2 [Ex-2.60, (10aR,12aR)-8-chloro-3-cyclopropyl-1-methyl-3,4,10,10a,11,12,12a,13-octahydro-5,9-(azeno)cyclobuta[k]pyrazolo[4,3-b][1]oxa[4,6,10]triazacyclotridecine]",9.41
4,"Cc1nn(C(C)C)c2c1OC[C@@H]1CC[C@H]1Nc1nc(ncc1Cl)N2 [Ex-2.61, (10aR,12aR)-8-chloro-3-isopropyl-1-methyl-3,4,10,10a,11,12,12a,13-octahydro-5,9-(azeno)cyclobuta[k]pyrazolo[4,3-b][1]oxa[4,6,10]triazacyclotridecine]",9.60
5,"FC(F)(F)c1cnc2nc1NC1CCC1COc1c(C3CCOC3)nn(C3CCC3)c1N2 [Ex-2.62, (10aR,12aR)-3-cyclobutyl-1-((R)-(10aR,12aR)-3-cyclobutyl-1-((S)-(10aS,12aS)-3-cyclobutyl-1-((R)-(10aS,12aS)-3-cyclobutyl-1-((S)-tetrahydrofuran-3-yl)-8-(trifluoromethyl)-3,4,10,10a,11,12,12a,13-octahydro-5,9-(azeno)cyclobuta[k]pyrazolo[4,3-b][1]oxa[4,6,10]triazacyclotridecine]",6.88
6,"FC(F)(F)c1cnc2nc1NC1CCC1COc1c(C3CCOC3)nn(C3CCC3)c1N2 [Ex-2.63, (10aR,12aR)-3-cyclobutyl-1-((R)-(10aR,12aR)-3-cyclobutyl-1-((S)-(10aS,12aS)-3-cyclobutyl-1-((R)-(10aS,12aS)-3-cyclobutyl-1-((S)-tetrahydrofuran-3-yl)-8-(trifluoromethyl)-3,4,10,10a,11,12,12a,13-octahydro-5,9-(azeno)cyclobuta[k]pyrazolo[4,3-b][1]oxa[4,6,10]triazacyclotridecine]",>10.09
7,"FC(F)(F)c1cnc2nc1NC1CCC1COc1c(C3CCOC3)nn(C3CCC3)c1N2 [Ex-2.64, (10aR,12aR)-3-cyclobutyl-1-((R)-(10aR,12aR)-3-cyclobutyl-1-((S)-(10aS,12aS)-3-cyclobutyl-1-((R)-(10aS,12aS)-3-cyclobutyl-1-((S)-tetrahydrofuran-3-yl)-8-(trifluoromethyl)-3,4,10,10a,11,12,12a,13-octahydro-5,9-(azeno)cyclobuta[k]pyrazolo[4,3-b][1]oxa|4,6,10]triazacyclotridecine]",>10.09
